# Measured values reported in patent US12187727B2, “Methods for antagonizing a melanocortin 4 receptor” (Pfizer Inc., priority 2020, dated 2025).
# Read-outs that look alike come from different tables or passages of the source.
# Columns and labels:
# hMC4R = hMC4R (Homo sapiens (Human), UniProt P32245); assay: In vitro binding affinity assay using hMC4R (radioligand competition binding, [125I]-(Nle4, D-Phe7)-α-MSH); conditions: geometric mean
# [1] = molecular target: human Melanocortin-4 receptor (MC4R) (Homo sapiens (Human), UniProt P32245); assay: Functional in vitro MC4R antagonist potency assay (cAMP HTRF in CHO cells); assay type: cell-based
# human Melanocortin-4 receptor (MC4R), sequence (P32245 whole entry): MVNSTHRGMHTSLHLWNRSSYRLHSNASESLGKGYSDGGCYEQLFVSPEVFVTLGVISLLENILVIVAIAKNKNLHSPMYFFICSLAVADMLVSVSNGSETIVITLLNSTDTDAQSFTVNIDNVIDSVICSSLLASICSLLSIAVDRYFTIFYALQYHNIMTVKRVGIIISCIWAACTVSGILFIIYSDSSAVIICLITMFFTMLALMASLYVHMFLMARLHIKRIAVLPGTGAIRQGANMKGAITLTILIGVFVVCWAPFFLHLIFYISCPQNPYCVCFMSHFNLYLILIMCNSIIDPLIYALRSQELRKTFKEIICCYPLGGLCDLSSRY
# Procedure, shortened: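 CHO cells stably expressing human MC4R were preincubated 30 min at 37 °C with compound ([…], 0.1% DMSO), then stimulated 30 min with EC80 αMSH (200 nM). Intracellular cAMP quantified by HTRF competitive immunoassay and normalized to agonist-stimulated and vehicle-only wells.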
# hMC4R, sequence (P32245 whole entry): as above
Compound,Ki (hMC4R; read-out: Ki (nM) geometric mean) [nM],Kb ([1]; read-out: Kb (nM) Antagonist geometric mean) [nM],Ki (hMC4R; read-out: Ki (nM) geometric) [nM],"Kb ([1]; human MC4R in CHO cells, cAMP HTRF, 200 nM aMSH challenge, Kb from IC50 by Leff-Dougall equation, geometric mean, read-out: Kb (nM) Antagonist geometric) [nM]"
"Cc1nc2c(cc1-c1ncccn1)CC[C@@]1(CCN(C(=O)[C@H](C)c3ccc(F)c(F)c3)C1)N2 (single isomer, unassigned) [Example 51]",120,> 110,–,–
"COc1cc([C@@H](C)C(=O)N2CC[C@@]3(CCc4cc(-c5nc6ccccn6n5)c(C)nc4N3)C2)c(F)cn1 [Example 111, (2R)-2-(5-fluoro-2-methoxypyridin-4-yl)-1-[(2S)-7-methyl-6-([1,2,4]triazolo[1,5-a]pyridin-2-yl)-3,4-dihydro-1H-spiro[1,8-naphthyridine-2,3′-pyrrolidin]-1′-yl]propan-1-one]",–,–,0.25,0.47
